Assay [1] deals with Dual specificity mitogen-activated protein kinase kinase 1 (Homo sapiens, UniProt Q02750). Description: Inhibition of MEK1 (unknown origin).
In assay [2] the test system is MDA-MB-436. Description: Anticancer activity against human MDA-MB-436 cells assessed as cell growth inhibition incubated for 24 hrs by MTT assay. Type of assay: functional, cell-based. Conditions: MDA-MB-436, 24 h.
The subject of assay [3] is HCC1806. The experiment in a line: Anticancer activity against human HCC1806 cells assessed as cell growth inhibition incubated for 48 hrs by SRB assay. Type of assay: functional, cell-based. The settings on record: HCC1806, 48 h.
Assay [4] is described as follows: Inhibition of ERK (unknown origin). Also noted: species or system Homo sapiens.
For assay [5], the system named is BT-549. The experiment in a line: Anticancer activity against human BT-549 cells assessed as cell growth inhibition by MTT assay. In kind it is functional, cell-based. A general note: Tetrazolium assays rely on reduction of a dye to a coloured formazan, in cell work by metabolically active cells.
For assay [6], the system named is HCC1937. The experiment in a line: Anticancer activity against human HCC1937 cells assessed as cell growth inhibition by MTT assay. In kind it is functional, cell-based.
In assay [7] the test system is Hs-578T. Description: Anticancer activity against human Hs-578T cells assessed as cell growth inhibition incubated for 72 hrs by MTT assay. In kind it is functional, cell-based.
Assay [8] deals with HCC1937. Description: Anticancer activity against human HCC1937 cells assessed as cell growth inhibition incubated for 72 hrs by MTT assay. In kind it is functional, cell-based. Conditions: HCC1937, 72 h.
Assay [9] relates to HCC70. Description: Anticancer activity against human HCC70 cells assessed as cell growth inhibition incubated for 72 hrs by MTT assay. Conditions: HCC70, 72 h. Type of assay: functional, cell-based.
Assay [10] deals with MDA-MB-231. Description: Anticancer activity against human MDA-MB-231 cells assessed as cell growth inhibition incubated for 72 hrs by MTT assay. In kind it is functional, cell-based. Conditions: MDA-MB-231, 72 h.
In assay [11] the test system is MDA-MB-436. Description: Anticancer activity against human MDA-MB-436 cells assessed as cell growth inhibition incubated for 72 hrs by MTT assay. Type of assay: functional, cell-based. Conditions: MDA-MB-436, 72 h.
For assay [12], the system named is MDA-MB-231. The experiment in a line: Anticancer activity against human MDA-MB-231 cells assessed as cell growth inhibition incubated for 24 hrs by MTT assay. The settings on record: MDA-MB-231, 24 h. In kind it is functional, cell-based.
Assay [13] relates to BT-549. Description: Anticancer activity against human BT-549 cells assessed as cell growth inhibition incubated for 24 hrs by MTT assay. Type of assay: functional, cell-based. Conditions: BT-549, 24 h.
Assay [14] deals with Interleukin-8 (Homo sapiens, UniProt P10145). Description: Inhibition of human IL-8 by ELISA assay. For orientation: In an ELISA, binding on a coated surface is turned into a signal by an enzyme label.
Chain of Interleukin-8 (P10145 whole entry): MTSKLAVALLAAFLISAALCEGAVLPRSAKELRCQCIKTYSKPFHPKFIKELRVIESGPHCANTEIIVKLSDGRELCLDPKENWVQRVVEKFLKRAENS
Assay [15] deals with BT-549. Description: Anticancer activity against human BT-549 cells assessed as cell growth inhibition incubated for 72 hrs by CCK-8 assay. Type of assay: functional, cell-based. Conditions: BT-549, 72 h.
Assay [16] deals with Hs-578T. Description: Anticancer activity against human Hs-578T cells assessed as cell growth inhibition incubated for 72 hrs by CCK-8 assay. Type of assay: functional, cell-based.
Assay [17] deals with MDA-MB-231. Description: Anticancer activity against human MDA-MB-231 cells assessed as cell growth inhibition incubated for 72 hrs by CCK-8 assay. In kind it is functional, cell-based. Conditions: MDA-MB-231, 72 h.
Assay [18] concerns MDA-MB-231. The experiment in a line: cells. The settings on record: Homo sapiens, MDA-MB-231, 48 h.
For assay [19], the target named is Eukaryotic elongation factor 2 kinase (Homo sapiens, UniProt O00418). Description: Inhibition of eEF2K (unknown origin) by western blot analysis. (In western blotting, separated proteins are transferred to a membrane and probed.)
Chain of Eukaryotic elongation factor 2 kinase (O00418 whole entry): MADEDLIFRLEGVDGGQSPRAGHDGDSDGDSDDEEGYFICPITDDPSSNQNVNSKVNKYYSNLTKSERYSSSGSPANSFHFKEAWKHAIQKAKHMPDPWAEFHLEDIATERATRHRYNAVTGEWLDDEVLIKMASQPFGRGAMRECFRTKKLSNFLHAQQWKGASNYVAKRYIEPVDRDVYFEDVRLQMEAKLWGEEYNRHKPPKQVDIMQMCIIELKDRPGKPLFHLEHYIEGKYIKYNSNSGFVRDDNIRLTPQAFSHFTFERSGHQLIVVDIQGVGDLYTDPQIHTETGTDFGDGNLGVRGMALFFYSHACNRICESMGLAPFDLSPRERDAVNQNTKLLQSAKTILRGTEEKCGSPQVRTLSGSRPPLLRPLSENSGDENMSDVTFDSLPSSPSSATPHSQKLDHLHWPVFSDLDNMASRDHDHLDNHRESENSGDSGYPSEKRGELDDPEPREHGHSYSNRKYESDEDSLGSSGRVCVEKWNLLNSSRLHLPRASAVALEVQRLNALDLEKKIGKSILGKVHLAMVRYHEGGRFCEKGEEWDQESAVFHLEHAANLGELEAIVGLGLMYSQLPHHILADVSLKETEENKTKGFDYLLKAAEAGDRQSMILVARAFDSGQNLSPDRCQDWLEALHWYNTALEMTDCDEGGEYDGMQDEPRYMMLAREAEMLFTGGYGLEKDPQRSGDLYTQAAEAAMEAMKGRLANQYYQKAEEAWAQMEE
In assay [20] the test system is MDA-MB-468. The experiment in a line: Anticancer activity against human MDA-MB-468 cells assessed as cell growth inhibition incubated for 48 hrs by BrdU assay. Type of assay: functional, cell-based. The settings on record: MDA-MB-468, 48 h.
Assay [21] has as its system MDA-MB-231. Description: Anticancer activity against human MDA-MB-231 cells assessed as cell growth inhibition incubated for 48 hrs by BrdU assay. In kind it is functional, cell-based. The settings on record: MDA-MB-231, 48 h.
Assay [22] has as its system HCC1806. Description: Anticancer activity against human HCC1806 cells assessed as cell growth inhibition incubated for 24 hrs by MTS assay. The settings on record: HCC1806, 24 h. In kind it is functional, cell-based.
The subject of assay [23] is HCC1937. The experiment in a line: Anticancer activity against human HCC1937 cells assessed as cell growth inhibition incubated for 24 hrs by MTS assay. Type of assay: functional, cell-based. Conditions: HCC1937, 24 h.
Assay [24] relates to MDA-MB-231. Description: Anticancer activity against human MDA-MB-231 cells assessed as cell growth inhibition by MTS assay. In kind it is functional, cell-based.
For assay [25], the system named is Hs-578T. The experiment in a line: Anticancer activity against human Hs-578T cells assessed as cell growth inhibition by MTS assay. Type of assay: functional, cell-based.
Assay [26] deals with BT-549. The experiment in a line: Anticancer activity against human BT-549 cells assessed as cell growth inhibition by MTS assay. Type of assay: functional, cell-based.
Assay [27] has as its target Protein SET (Homo sapiens) (UniProt Q01105). The experiment in a line: Inhibition of SET (unknown origin).
For assay [28], the target named is Protein tyrosine phosphatase type IVA 3 (Homo sapiens) (UniProt O75365). Description: Inhibition of human PRL-3 incubated for 48 hrs by MMP assay.
Chain of Protein tyrosine phosphatase type IVA 3 (Homo sapiens) (O75365 whole entry): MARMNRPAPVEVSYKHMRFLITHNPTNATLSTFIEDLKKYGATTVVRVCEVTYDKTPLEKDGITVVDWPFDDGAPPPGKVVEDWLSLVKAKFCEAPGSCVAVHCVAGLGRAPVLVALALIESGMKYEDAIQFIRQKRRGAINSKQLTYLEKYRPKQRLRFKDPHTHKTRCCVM

Results on 20 molecules are retold here after ChEMBL document CHEMBL5226297, “Small-Molecule Drug Discovery in Triple Negative Breast Cancer: Current Situation and Future Directions” (J Med Chem, 2021).

As usually defined, the pIC50 is the negative decadic logarithm of the IC50, by convention in mol/L.

pIC50: −log10 of the molar value.

Chain of Dual specificity mitogen-activated protein kinase kinase 1 (Q02750 whole entry): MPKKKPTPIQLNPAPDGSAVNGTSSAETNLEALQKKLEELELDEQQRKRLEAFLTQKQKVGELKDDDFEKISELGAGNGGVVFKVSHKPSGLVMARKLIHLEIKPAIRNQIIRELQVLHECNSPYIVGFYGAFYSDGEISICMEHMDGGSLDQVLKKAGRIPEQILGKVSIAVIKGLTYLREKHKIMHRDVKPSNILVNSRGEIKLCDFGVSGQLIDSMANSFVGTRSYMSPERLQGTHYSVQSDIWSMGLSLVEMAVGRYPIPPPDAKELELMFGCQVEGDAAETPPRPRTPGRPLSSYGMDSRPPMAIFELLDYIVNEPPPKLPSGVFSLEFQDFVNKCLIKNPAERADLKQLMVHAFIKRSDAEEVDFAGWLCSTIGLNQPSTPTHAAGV
Chain of Protein SET (Homo sapiens) (Q01105 whole entry): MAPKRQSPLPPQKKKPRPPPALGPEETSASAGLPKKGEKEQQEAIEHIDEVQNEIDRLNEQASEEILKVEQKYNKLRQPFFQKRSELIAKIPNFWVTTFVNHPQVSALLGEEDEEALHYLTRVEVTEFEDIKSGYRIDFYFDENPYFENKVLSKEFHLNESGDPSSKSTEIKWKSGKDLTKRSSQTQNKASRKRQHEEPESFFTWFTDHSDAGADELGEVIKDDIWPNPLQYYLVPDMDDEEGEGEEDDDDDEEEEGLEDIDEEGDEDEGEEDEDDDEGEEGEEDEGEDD

`O=C(c1ccc(F)c(F)c1Nc1ccc(I)cc1F)N1CC(O)([C@@H]2CCCCN2)C1` [COBIMETINIB] had a pIC50 in assay [1] of 5.38.

With `Cc1nc(NCc2ccccc2F)ncc1C(=O)NCc1cccs1`, in [2], the pIC50 was 5.10.

`C[C@H]1[C@H](C)CC[C@]2(C(=O)N3CCNCC3)CC[C@]3(C)C(=CC[C@@H]4[C@@]5(C)Cc6cn[nH]c6C(C)(C)[C@@H]5CC[C@]43C)[C@H]12`: in [3], the pIC50 was 5.15.

Regarding `Clc1cc(Cl)cc(C(Cn2ccnc2)OCc2nc3ccccc3s2)c1` (stereo not drawn), the pIC50 in [4] is 5.30.

`Cc1cc(C=C2C(=O)C=CC2=O)cc(C)c1O`: the pIC50 in [5] was 4.56; in [6] it was 4.29.

On to `CN(C)CC/C=C1\c2ccccc2COc2ccc(CC(=O)NN)cc21`, for which the pIC50 in assay [2] was 5.30.

On to `C[C@@H]1COC(Nc2ccc3ncnc(Nc4ccc(OCc5nccs5)c(Cl)c4)c3c2)=N1` [VARLITINIB], for which the values for the pIC50 in assay [7], in [8] and in assay [9] were 5.00, 4.70 and 5.00, respectively.

Regarding `C=C1C(=O)O[C@@H]2/C=C(\C)[C@@H](O)C/C=C(/C)C[C@@H](OC(=O)/C(C)=C/CO)[C@@H]12`, the values for the pIC50 in [10] and in assay [11] were 5.49 and 5.52, respectively.

Regarding `C=C1C(=O)O[C@]2(C)CC[C@H](CBr)[C@]12O`, the pIC50 in assay [12] was 4.92; in assay [13], 5.02; in assay [2], 4.93.

In assay [14], `COc1ccc2cc3[n+](cc2c1OC)CCc1cc2c(cc1-3)OCO2` [BERBERINE] had a pIC50 of 4.30.

Turning to `CO[C@H]1/C=C\C=C(/C)C(=O)NC2=CC(=O)C(NCCN(C)C)=C(C[C@@H](C)C[C@H](OC)[C@H](O)[C@@H](C)/C=C(\C)[C@@H]1OC(N)=O)C2=O` [ALVESPIMYCIN], the pIC50 in [15] was 4.77; in assay [16] it was 8.08; in assay [17] it was 4.34.

On to `N[C@@H](C(=O)N[C@@H]1C(=O)N2C(C(=O)O)=C(CSc3c[nH]nn3)CS[C@H]12)c1ccc(O)cc1` [CEFATRIZINE], for which, in [2], the pIC50 is 4.52.

As to `C=C(C)[C@@H]1CCC(C)=C[C@H]1c1c(O)cc(CCCCC)cc1O` [CANNABIDIOL], the pIC50 in [18] is 5.22.

`CC1=CC(=O)C(C(C)C)=CC1=O` [THYMOQUINONE]: the pIC50 in assay [19] is 5.09.

For the molecule `CC(C)CC[C@@H]1NC(=O)[C@]2(C)CCCN2C1=O`, the pIC50 is 4.17 in assay [20] and 4.13 in assay [21].

For `COC(=O)[C@@H](O)[C@](O)(CCC(C)C)C(=O)O[C@@H]1C(OC)=C[C@]23CCCN2CCc2cc4c(cc2[C@H]13)OCO4`, the negative-log IC50 (pIC50) was 7.00 in assay [22] and 6.30 in assay [23].

Consider `COC(=O)Nc1nc2cc(C(=O)c3ccc(F)cc3)ccc2[nH]1` [FLUBENDAZOLE], for which the pIC50 was 6.60 in assay [24], 6.30 in assay [12], 6.90 in assay [25] and 6.90 in [26].

On to `CC(=O)N1c2ccccc2Oc2ccccc21`, for which, in assay [12], the pIC50 was 6.52.

In assay [27], `C#Cc1cccc(Nc2nc(Nc3ccc(Oc4ccccc4)cc3)nc3cc(OC)c(OC)cc23)c1` registered an IC of 3 µM.

`C=C1/C(=C\C=C2/CCC[C@]3(C)[C@@H]([C@H](C)CCCC(C)(C)O)CC[C@@H]23)C[C@@H](OC(=O)CBr)C[C@@H]1O`: in assay [28], the IC was 100 nM.
